Measurements taken from ChEMBL document CHEMBL3232739, “Discovery of a potent and dissociated non-steroidal glucocorticoid receptor agonist containing an alkyl carbinol pharmacophore” (Bioorg Med Chem Lett, 2014).
Converted amounts (≈) assume the structure as drawn.

How the values were obtained:
[1] = Cmax in Sprague-Dawley rat at 30 mg/kg, po; assay type: ADME, organism-based; set-up: dose 30 mg/kg, route oral; details: in vivo
Mus musculus [2] = assay: Toxicity in B10.RIII mouse assessed as body fate level in serum at 30 mg/kg, po qd for 5 weeks relative to control; assay type: organism-based; set-up: dose 30 mg/kg, route oral; details: in vivo, 840 h
Mus musculus [3] = assay: Antiarthritic activity in po dosed B10.RIII mouse collagen/complete Freund's adjuvant-induced arthritis model assessed as reduction of disease score administered po qd for 5 weeks relative to control; assay type: functional; details: 840 h
Progesterone receptor = biological target: T1, Progesterone receptor (Homo sapiens, UniProt P06401); assay: Displacement of TAMRA-labeled mifepristone from progesterone receptor (unknown origin) by fluorescence polarization assay
T1 sequence (P06401 whole entry): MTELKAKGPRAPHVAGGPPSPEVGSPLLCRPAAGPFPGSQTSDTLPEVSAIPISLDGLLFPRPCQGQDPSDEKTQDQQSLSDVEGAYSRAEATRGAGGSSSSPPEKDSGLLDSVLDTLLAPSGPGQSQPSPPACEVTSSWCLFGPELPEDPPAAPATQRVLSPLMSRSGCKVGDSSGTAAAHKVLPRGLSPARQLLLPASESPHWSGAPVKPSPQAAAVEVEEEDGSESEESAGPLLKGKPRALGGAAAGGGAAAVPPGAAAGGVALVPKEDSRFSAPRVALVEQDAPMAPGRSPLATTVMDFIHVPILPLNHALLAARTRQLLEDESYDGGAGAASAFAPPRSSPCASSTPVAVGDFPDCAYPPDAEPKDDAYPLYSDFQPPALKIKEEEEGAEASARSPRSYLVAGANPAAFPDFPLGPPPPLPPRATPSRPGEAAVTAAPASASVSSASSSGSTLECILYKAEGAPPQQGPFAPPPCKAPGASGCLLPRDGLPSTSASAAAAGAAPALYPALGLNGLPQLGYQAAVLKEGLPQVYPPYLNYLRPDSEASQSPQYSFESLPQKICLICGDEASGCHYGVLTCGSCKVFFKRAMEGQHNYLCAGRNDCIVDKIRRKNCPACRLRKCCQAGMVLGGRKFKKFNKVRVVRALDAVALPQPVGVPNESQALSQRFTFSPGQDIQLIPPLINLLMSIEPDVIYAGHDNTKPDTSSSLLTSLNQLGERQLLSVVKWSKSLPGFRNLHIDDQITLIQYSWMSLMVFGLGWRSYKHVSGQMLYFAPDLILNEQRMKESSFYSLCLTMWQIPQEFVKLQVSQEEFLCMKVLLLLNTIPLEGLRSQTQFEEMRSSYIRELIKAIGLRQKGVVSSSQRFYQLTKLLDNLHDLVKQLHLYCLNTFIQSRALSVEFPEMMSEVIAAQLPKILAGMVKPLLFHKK

[4] = Equilibrium solubility of the compound at pH 7.4; assay type: physicochemical; details: buffer
Mus musculus [5] = assay: Antiinflammatory activity in mouse assessed as inhibition of LPS-induced TNFalpha production at 1 mg/kg, po; assay type: functional
[6] = Efflux ratio of permeability from basolateral to apical side over apical to basolateral side in human Caco2 cells; assay type: ADME, cell-based; details: Caco-2
Mus musculus [7] = assay: Toxicity in B10.RIII mouse assessed as free fatty acid level in serum at 100 mg/kg, po qd for 5 weeks relative to control; assay type: organism-based; set-up: dose 100 mg/kg, route oral; details: in vivo, 840 h
Mus musculus [8] = assay: Toxicity in po dosed B10.RIII mouse assessed as triglyceride level in serum administered po qd for 5 weeks relative to control; assay type: organism-based; details: in vivo, 840 h
[9] = Equilibrium solubility of the compound at pH 2.2; assay type: physicochemical; details: buffer
[10] = AUC (infinity) in Sprague-Dawley rat at 30 mg/kg, po; assay type: ADME, organism-based; set-up: time infinity, dose 30 mg/kg, route oral; details: plasma
Glucocorticoid receptor [11] = biological target: T2, Glucocorticoid receptor (Homo sapiens, UniProt P04150); assay: Transactivation of glucocorticoid receptor in human HeLa cells harboring MMTV promoter at 2 uM by luciferase reporter gene assay relative to dexamethasone; assay type: cell-based; details: read-out: Efficacy
T2 sequence (P04150 whole entry): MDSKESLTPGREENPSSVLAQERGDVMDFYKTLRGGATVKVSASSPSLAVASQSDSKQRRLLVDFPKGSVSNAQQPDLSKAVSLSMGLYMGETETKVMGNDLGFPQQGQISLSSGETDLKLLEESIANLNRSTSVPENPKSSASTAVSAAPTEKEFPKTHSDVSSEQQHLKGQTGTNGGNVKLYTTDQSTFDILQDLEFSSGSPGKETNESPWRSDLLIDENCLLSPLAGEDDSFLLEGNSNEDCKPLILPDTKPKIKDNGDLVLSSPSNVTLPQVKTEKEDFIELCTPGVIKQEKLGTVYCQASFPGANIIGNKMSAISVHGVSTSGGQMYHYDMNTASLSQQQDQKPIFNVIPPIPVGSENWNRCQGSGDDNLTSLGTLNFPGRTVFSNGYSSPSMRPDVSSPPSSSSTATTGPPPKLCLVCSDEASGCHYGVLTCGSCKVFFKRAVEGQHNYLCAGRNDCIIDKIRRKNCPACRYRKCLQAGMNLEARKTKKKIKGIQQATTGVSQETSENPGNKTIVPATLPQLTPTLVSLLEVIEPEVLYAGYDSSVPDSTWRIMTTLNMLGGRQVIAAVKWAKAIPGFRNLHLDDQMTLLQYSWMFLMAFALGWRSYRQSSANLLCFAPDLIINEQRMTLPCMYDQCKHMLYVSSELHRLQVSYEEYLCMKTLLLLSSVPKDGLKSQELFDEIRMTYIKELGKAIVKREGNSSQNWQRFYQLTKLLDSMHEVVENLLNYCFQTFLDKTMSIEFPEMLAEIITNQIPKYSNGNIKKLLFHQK

Mus musculus [12] = assay: Antiarthritic activity in B10.RIII mouse collagen/complete Freund's adjuvant-induced arthritis model assessed as reduction of disease score at 100 mg/kg, po qd for 5 weeks relative to control; assay type: functional; set-up: scale not given: the % may be the effect or the level left
Mus musculus [13] = assay: Antiarthritic activity in B10.RIII mouse collagen/complete Freund's adjuvant-induced arthritis model assessed as reduction of disease score at 30 mg/kg, po qd for 5 weeks relative to control; assay type: functional; set-up: scale not given: the % may be the effect or the level left
Mus musculus [14] = assay: Toxicity in B10.RIII mouse assessed as insulin level in serum at 30 mg/kg, po qd for 5 weeks relative to control; assay type: organism-based; set-up: dose 30 mg/kg, route oral; details: in vivo, 840 h
Mus musculus [15] = assay: Toxicity in B10.RIII mouse assessed as free fatty acid level in serum at 30 mg/kg, po qd for 5 weeks relative to control; assay type: organism-based; set-up: dose 30 mg/kg, route oral; details: in vivo, 840 h
Glucocorticoid receptor [16] = biological target: T2, Glucocorticoid receptor
Mus musculus [17] = assay: Toxicity in po dosed B10.RIII mouse assessed as insulin level in serum administered po qd for 5 weeks relative to control; assay type: organism-based; details: in vivo, 840 h
Glucocorticoid receptor [18] = biological target: T2, Glucocorticoid receptor; remark: listed apart in the source
Description: Agonist activity at glucocorticoid receptor in human foreskin fibroblasts assessed as inhibition of IL-1-induced IL-6 production by trans-repression assay

[19] = Permeability across apical to basolateral side in human Caco2 cells; assay type: ADME, cell-based; details: Caco-2, read-out: permeability
Mus musculus [20] = assay: Antiinflammatory activity in po dosed mouse assessed as inhibition of LPS-induced TNFalpha production; assay type: functional
Homo sapiens = species: Homo sapiens; assay: Selectivity ratio of IC50 for mineralocorticoid receptor (unknown origin) to IC50 for glucocorticoid receptor (unknown origin)
[21] = Mean residence time in Sprague-Dawley rat at 2 mg/kg, iv; assay type: ADME, organism-based; set-up: dose 2 mg/kg, route intravenous; details: in vivo

Cmax [1]: 708 ng/mL
IC50 (Progesterone receptor): 290 nM
solubility thermodynamic [4]: 15 µg/mL (≈ 39.2 µM)
efflux ratio [6]: 1.3
solubility thermodynamic [9]: 840 µg/mL (≈ 2200 µM)
AUC(0-inf) [10]: 6730 ng·h/mL
Emax at 2 µM (Glucocorticoid receptor [11]): 1%
IC50 (Glucocorticoid receptor [16]): 2 nM
IC50 (Glucocorticoid receptor [18]): 27 nM
Papp A→B [19]: 13.4 ×10⁻⁶ cm/s
Ratio IC50 (Homo sapiens): > 100
MRT [21]: 1.38 h
Compound: Cc1ccc(F)cc1C(C)(C)C[C@@](O)(Cc1cc2cnccc2[nH]1)C(C)(C)C
Activity (Mus musculus [2]): -7%
ED50 (Mus musculus [3]): 30 mg/kg
inhibition in vivo at 1 mg/kg (Mus musculus [5]): 82%
Activity (Mus musculus [7]): -27%
Activity (Mus musculus [8]): Dose-dependent effect
Activity (Mus musculus [12]): -84%
Activity (Mus musculus [13]): -51%
Activity (Mus musculus [14]): 60%
Activity (Mus musculus [15]): 25%
Activity (Mus musculus [17]): Dose-dependent effect
ED50 (Mus musculus [20]): < 1 mg/kg
